Data from paper PMC6828666, “Discovery of holoenzyme-disrupting chemicals as substrate-selective CK2 inhibitors” (Scientific Reports, 2019).

Experiments:
[1] = Solubility in the protein buffer (WaterLOGSY NMR); format: physicochemical; details: relative to the other compounds
Method: Standard 1D, STD, and WaterLOGSY NMR spectra were acquired at 20 °C with a Bruker 600 MHz NMR spectrometer, equipped with a Z-gradient cryoprobe. WaterLOGSY mixing time was 1.5 s. Both STD and WaterLOGSY spectra were recorded for each sample. WaterLOGSY spectra in the absence of protein receptor were recorded with 300 µM compound to assess the compound solubility. All the NMR experiments were performed at 293 K with excitation sculpting to suppress peaks from water. 1D and STD experiments were performed using identical experimental conditions (spin lock, interscan delays), and parameters for the STD experiments (saturation frequency and saturation time) were identical for all samples. […] NMR tubes contained 2 μM CK2 with 300 μM of 4.

[2] = molecular target: T1, CK2 holoenzyme complexes in MCF10A cells (Homo sapiens, UniProt P68400); experiment: In situ proximity ligation assay (PLA); format: cell-based; details: 50 μM, 3 h, DMSO control 16 ± 4
T1 construct: endogenous in cells; host or cells: MCF10A
T1 sequence (P68400 whole entry, one chain of several): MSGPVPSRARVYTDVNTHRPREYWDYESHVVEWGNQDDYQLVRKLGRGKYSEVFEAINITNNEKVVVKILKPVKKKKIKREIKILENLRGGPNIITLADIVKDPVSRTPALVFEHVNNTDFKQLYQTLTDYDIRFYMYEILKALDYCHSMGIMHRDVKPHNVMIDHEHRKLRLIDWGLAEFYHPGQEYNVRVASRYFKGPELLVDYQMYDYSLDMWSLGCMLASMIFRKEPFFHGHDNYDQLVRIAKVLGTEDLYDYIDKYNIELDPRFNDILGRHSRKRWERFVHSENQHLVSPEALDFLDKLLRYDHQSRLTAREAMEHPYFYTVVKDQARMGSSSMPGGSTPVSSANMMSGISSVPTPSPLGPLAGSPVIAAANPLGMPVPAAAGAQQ
Method: In situ PLAs were performed using a Duolink kit (Olink Bioscience, Uppsala, Sweden) according to the manufacturer’s instructions with few modifications. MCF10A cells were fixed in 4% paraformaldehyde for 10 min. The cells were then permeabilized with 0.1% Triton in Tris-buffered saline (TBS; 50 mM Tris, pH 7.6, 150 mM NaCl) and incubated with 100 mM glycine in phosphate-buffered saline (137 mM NaCl, 2.7 mM KCl, 10 mM Na2 HPO4, and 1.8 mM KH2 PO4, pH 7.4) for 20 min. Permeabilized cells were incubated overnight at 4 °C with primary antibodies diluted as follows: mouse CK2α 1:250 and rabbit CK2β 1:50. Cells were washed three times in TBS with 0.05% Tween-20 for 5 min each with gentle agitation. Secondary antibodies conjugated with oligonucleotides, PLA probe anti-mouse MINUS and PLA probe anti-rabbit PLUS, were added to the cells and incubated for 90 min at 37 °C in a humidity chamber. Finally, after ligation and amplification steps, cells were counterstained with the DNA-binding dye Hoechst and Phaloïdine-488 for actin staining (Molecular Probes, Thermo Fisher Scientific, Courtaboeuf, France). Images were observed using a Zeiss Apotome microscope and analyzed using a Zen Pro imaging software (Zeiss, Oberkochen, Germany). Quantification was performed using the BlobFinder software (V3.2, Swedish University of Agricultural Sciences, Uppsala University)[67]. […]

[3] = test system: p21 phosphorylation at Thr145 in MCF10A cells; experiment: Western blot of p21 Thr145 phosphorylation; format: cell-based, human; details: 24 h
Method: Figure 5 Cellular effects of compounds 3, 4 and 6. MCF10A cells were incubated for 24 h with either DMSO or 30 μM TAT or 30 μM TAT-Pc or 25 μM 6 (a) or with increasing concentrations of 6 (b) or 3 (c). MCF10A cells were incubated for 48 h with either DMSO or with increasing concentrations of 3 or 6 (d). Cells were then lysed and analyzed by western blot with the indicated antibodies. Blot images are representative of at least three independent experiments. Uncropped blots are shown in Supplementary Fig. S16. (e) MDA-MB231 cells were treated with 40 μM 6 (⚬), 4 (▴) or 3 (X). (f) MDA-MB231 cells were treated for 30 h with increasing concentrations of 6 (⚬) or 4 (▴). Insert: cells were treated for 30 h with 80 μM 6 or 10 μM CX-4945. (g) Cells were incubated with 80 μM 6 or 4 in the absence or presence of 20 μM Z-VAD. […] (h) MDA-MB231 cells (⚬) or MCF10A cells (⦁) were incubated for 24 h with 80 μM 6. Cell death was automatically quantified from images captured every 3 h for the duration of the experiments using an Essen IncuCyte Zoom live-cell microscopy incubator. Error bars represent the SEM of two biological replicates derived from technical triplicates.
Cells were lysed in RIPA buffer (10 mM Tris-HCl pH 7.4, 150 mM NaCl, 1% Triton X-100, 0.1% SDS, 0.5% DOC and 1 mM EDTA) containing both protease- and phosphatase-inhibitor cocktails (Sigma-Aldrich; P8340, P2850, P5726). Cell homogenates were quantified using BCA protein Assay kit (Thermo Scientific). SDS-PAGE was performed using pre-cast 4–12% gradient gel (Bio-Rad) and submitted to electrophoresis in NuPAGE buffer (150 V for 75 min). Separated proteins at 20 μg/lane were transferred to PVDF membranes (100 V for 60 min). […] Luminata Forte Western HRP substrate (Millipore) was added and membranes were read with Fusion Fx7 (PerkinElmer). […] Images were analyzed and band intensities were quantified using ImageJ software. […]

MCF10A cells = experiment: Scratch wound cell migration assay; format: cell-based, human; details: 40 μM
Method: Cells seeded at equal density were allowed to grow to confluence overnight. The Essen Bioscience WoundMaker^TM, an accessory for the IncuCyte Zoom®, was utilized to create Scratch-wounds of a standardized width (~600 μm). Cells were treated with the indicated inhibitors and imaged every 15 min for 44 h and the percentage of wound confluence was analyzed.
Fig. S10. […] MCF10A cells (a) or MDA-MB231 cells (b) were allowed to grow to confluence overnight. Wounds of a standardized width were created using the Essen Bioscience WoundMakerTM. […] Wound closure was monitored using the Essen IncuCyte Zoom live-cell microscopy incubator. Images were captured every 2 h for the duration of the experiment. Error bars represent the SEM of two biological replicates derived from technical triplicates.

CK2α/CK2β interaction = CK2α/CK2β interaction (Homo sapiens, UniProt P68400); experiment: In vitro CK2α/CK2β interaction assay ([35S]methionine-labeled CK2α, plate-bound MBP-CK2β); format: binding
CK2α/CK2β interaction, sequence (P68400 whole entry): as the sequence (P68400 whole entry, one chain of several) above
Method: The CK2α/CK2β interaction assay involved competition between plate-bound MBP-CK2β and the selected compounds for binding to soluble [^35S]methionine-labeled CK2α (10^5 cpm). The assays were performed in reacti-Bind streptavidin-coated high-binding-capacity 96-well plates (Pierce) in which each well was coated with 250 ng of biotinylated MBP-CK2β in 50 mM Tris/HCl, pH 7.2, and 0.4 M NaCl buffer. The compounds and [^35S]methionine-labeled CK2α were added in each well in the same buffer, incubated for 1 h at room temperature and triple-washed, after which the radioactivity of each well was determined using a scintillation counter. Positive control (100% competition) was determined with a 10-fold molar excess of untagged CK2α, and negative control (0% competition) was performed in the absence of competitor[35].

With `O=C(OCC1CCN(CCNS(=O)(=O)c2ccccc2)CC1)c1c[nH]c2ccccc12` [Compound 4, (1-(2-(Phenylsulfonamido)ethyl)piperidin-4-yl)methyl 1H-indole-3-carboxylate] the “solubility in the protein buffer” value [1] was “highest solubility” and the “CK2 holoenzyme complexes (PLA dots)” value [2] was 8 ± 2 dots/cell.
With `CS(=O)(=O)NCCN1CCC(COC(=O)c2c[nH]c3ccccc23)CC1` [Compound 3, (1-(2-(Methylsulfonamido)ethyl)piperidin-4-yl)methyl 1H-indole-3-carboxylate] the p21 phosphorylation ([3]; 100 μM) was “moderate increase” and the “cell migration / wound closure” value (MCF10A cells) was “not affected”.
For `COc1[nH]c2ccc(F)cc2c1C(=O)OCC1CCN(CCNS(C)(=O)=O)CC1` [Compound 1], the IC50 (CK2α/CK2β interaction) was ~80 µM and the “reduction of bound radioactive CK2α” value (CK2α/CK2β interaction; single dose 300 μM) was “about 75%”.
In the case of `COc1[nH]c2ccc(F)cc2c1C(=O)OCC1CCN(CCNS(=O)(=O)c2ccccc2)CC1.Cl` [Compound 6], the “CK2 holoenzyme complexes (PLA dots)” value [2] is reported as 6 ± 2 dots/cell, the “concentration at which p21 Thr145 phosphorylation reaches the maximum” value [3] is reported as 20 µM and the “p21 Thr145 phosphorylation” value ([3]; increasing concentrations) is reported as “striking dose-dependent increase”. The “cell migration / wound closure” value (MCF10A cells) was “completely abrogated”.
